Assay results taken from patent US10266527B2, “T-box riboswitch-binding anti-bacterial compounds” (THE RESEARCH FOUNDATION FOR THE STATE UNIVERSITY OF NEW YORK, priority 2013, dated 2019).
Values after ≈ are worked out from the molar mass of the structure shown. Where two headings read alike, the source gives them in different places.

Key:
Type in all cases: cell-based
B. subtilis = experiment: Disc diffusion assay, growth inhibition of B. subtilis; conditions: Table 1, ✓ = zone of inhibition observed
Excerpt: The same 20 top binders and 8 additional predicted to interact with the cleft of the tyrRS mRNA Specifier Loop were selected from subsequent docking and preliminary fluorescence data.

B. subtilis BGSC 1A1 [1] = experiment: Broth microdilution MIC
Experimental: (§1) Broth microdilution assays^77, 78 were performed with B. subtilis, and S. aureus to determine the lowest compound concentration inhibiting visible growth, i.e., minimum inhibitory concentration (MIC) of the 4 original compounds. […] The insolubility of the fourth compound may account for its lack of antibacterial activity. […] The MICs of each compound are moderate.
(§2) Strains were grown on trypticase soy agar (TSA) with 5% sheep blood at 37° C. for 24 hours. Five isolated colonies were used to inoculate 5 mL cation-adjusted Mueller-Hinton broth (CAMHB) contained in a 50 mL centrifuge tube. The resulting culture was incubated shaking at 200 rpm for 3 hours at 37° C. and then diluted in CAMHB until its turbidity matched that of a 0.5 McFarland standard (OD625 0.08-0.10). After the culture had been standardized against a 0.5 McFarland standard, it was diluted 1:10 in CAMHB and then 5 μL of this dilution was added to the appropriate wells of a 96-well, flat-bottomed tissue culture plate in which each row contained a twofold dilution series of a particular compound ranging in concentration from 0.25 μg/mL to 512 μg/mL. Each plate also included a sterility control well containing CAMHB to which standardized inoculum was not added and a growth control well containing CAMHB to which 5 μL standardized inoculum was added. […] With the exception of the sterility control well, all wells were inoculated within 15 minutes of inoculum preparation to ensure that the starting concentration of bacteria in each well was approximately 5×10^5 CFU/m L. A Tecan Sunrise microplate absorbance reader was used to measure the OD620 of each well before and after 20 h incubation at 37° C. MIC values were recorded as the lowest compound concentration at which no visible growth was observed after this incubation period.

B. cereus ATCC 7064 [2] = experiment: Broth microdilution MIC; conditions: Bacillus cereus, ATCC7064; B. cereus ATCC 7064; read-out: MIC
S. aureus ATCC 29213 [3] = experiment: Broth microdilution MIC
Excerpt: (§3) The identity and purity of both PKZ 6 and 18 was confirmed by mass spectroscopy. Forty commercially available compounds chosen on the basis of initial in silico selections and similarity to our two hits were screened by disc diffusion assay (DDA) to determine their relative antibacterial activity with S. aureus. […] These 14 compounds were further evaluated by minimum inhibitory concentration assays (MIC)^41,42, and minimum bactericidal assays (MBC)^41 to confirm antibacterial activity, determine the concentration at which S. aureus growth is inhibited in liquid culture (MIC) and if they are acting as bacteriostatic or bactericidal agents (MBC). […] Representative embodiments are shown below.
as §1, §2

S. pneumoniae ATCC 49619 = experiment: Broth microdilution MIC; conditions: Streptococcus pneumoniae, ATCC49619; S. pneumoniae ATCC 49619; read-out: MIC
E. faecalis ATCC 29212 [4] = experiment: Broth microdilution MIC; conditions: Enterococcus faecalis, ATCC29212, N/O = not observed, read-out: MIC
B. cereus ATCC 7064 [5] = experiment: MBC determination; conditions: N/O = not observed
Experimental: (§4) Following 24 h incubation of these subcultures at 37° C., MBC values were recorded as the lowest compound concentration at which no viable colonies were observed.

B. subtilis BGSC 1A1 [6] = experiment: MBC determination; conditions: IND = indeterminate
Experimental: as §4

E. coli ATCC 25922 [7] = experiment: MBC determination; conditions: for E. coli (MBC): Table 5 analogs, triplicate experiments, N/O = not observed at concentrations tested (512-0.25 μg/mL)
Experimental: as §4

E. faecalis ATCC 29212 [8] = experiment: MBC determination; conditions: N/O = not observed
Experimental: as §4

E. coli ATCC 25922 [9] = experiment: Broth microdilution MIC (Gram negative specificity control); conditions: for MIC: Escherichia coli, ATCC25922
P. aeruginosa ATCC 27853 = experiment: Broth microdilution MIC; conditions: N/O = not observed
[10] = test system: Human Embryonic Kidney (HEK293) cells; experiment: Toxicity on a monolayer of HEK293 cells
S. aureus = experiment: Disc diffusion assay (DDA) of PKZ6 and PKZ18 analogs with S. aureus; conditions: Table 4, 150 μg/ml, ✓ = zone of inhibition observed
Excerpt: as §3
All compounds were tested at a concentration of 150 μg/ml.

S. aureus ATCC 29213 [11] = experiment: MBC determination; conditions: Table 5 analogs, triplicate experiments, N/O = not observed at concentrations tested (512-0.25 μg/mL)
Excerpt: as §3, §4

[12] = Staphylococcus aureus, ATCC29213, Table 5 analogs, triplicate experiments, N/O = not observed at concentrations tested (512-0.25 μg/mL), read-out: S. aureus MIC
[13] = Table 5 analogs, triplicate experiments, N/O = not observed at concentrations tested (512-0.25 μg/mL), read-out: E. coli MIC
[14] = Table 5 analogs, triplicate experiments, N/O = not observed at concentrations tested (512-0.25 μg/mL)

SMILES: CCn1c(=O)c(C(=O)NCCN2CCNCC2)c(O)c2ccccc21 [Compound 7]
- ZOI observed (B. subtilis): ✓
- antibacterial activity against B. subtilis (in words) (B. subtilis BGSC 1A1 [1]): active
- MIC (B. subtilis BGSC 1A1 [1]; Bacillus subtilis, BGSC1A1, B. subtilis BGSC 1A1, 20 h at 37° C., read-out: MIC): 32 µg/mL (≈ 92.9 µM)
- MIC (B. cereus ATCC 7064 [2]): 512 µg/mL (≈ 1490 µM)
- MIC (S. aureus ATCC 29213 [3]; S. aureus ATCC 29213, N/O = not observed): N/O (N/D)
- MIC (S. pneumoniae ATCC 49619): 128 µg/mL (≈ 372 µM)
- MIC (E. faecalis ATCC 29212 [4]): 512 µg/mL (≈ 1490 µM)
- MBC (B. cereus ATCC 7064 [5]): N/O
- MBC (B. subtilis BGSC 1A1 [6]): IND
- MBC (E. coli ATCC 25922 [7]; Escherichia coli, ATCC25922, E. coli ATCC 25922, read-out: MBC): 512 µg/mL (≈ 1490 µM)
- MBC (E. faecalis ATCC 29212 [8]): N/O
- antibacterial activity against E. coli (in words) (E. coli ATCC 25922 [9]; E. coli negative control without T-box riboswitch): moderate antibacterial activity
- MIC (E. coli ATCC 25922 [9]; E. coli ATCC 25922, N/O = not observed, read-out: MIC): 512 µg/mL (≈ 1490 µM)
- MIC (P. aeruginosa ATCC 27853): N/O (N/D)
- 16 hr post exposure % Live ([10]; 32 ug/ml): 100%
- 16 hr post exposure Morphology ([10]; 32 ug/ml): Normal
- 24 hr post exposure % Confluent ([10]; 32 ug/ml): 90%
- 24 hr post exposure % Live ([10]; 32 ug/ml): 90%
- 24 hr post exposure Morphology ([10]; 32 ug/ml): Normal
- 16 hr post exposure % Live ([10]; 64 ug/ml): 80%
- 16 hr post exposure Morphology ([10]; 64 ug/ml): Mix of Normal and Detached
- 24 hr post exposure % Confluent ([10]; 64 ug/ml): 80%
- 24 hr post exposure % Live ([10]; 64 ug/ml): 75%
- 24 hr post exposure Morphology ([10]; 64 ug/ml): Mix of Normal and Detached
- 16 hr post exposure % Live ([10]; 128 ug/ml): 0%
- 16 hr post exposure Morphology ([10]; 128 ug/ml): Rounded and Detached
- 24 hr post exposure % Confluent ([10]; 128 ug/ml): 0%
- 24 hr post exposure % Live ([10]; 128 ug/ml): 0%
- 24 hr post exposure Morphology ([10]; 128 ug/ml): Rounded and Detached

SMILES: CC1CC(NC(=O)C2C3CCC(C3)C2C(=O)O)CC(C)(C)C1 (stereo not drawn) [Compound 0605]
- ZOI observed (S. aureus): ✓

SMILES: O=C(NCCN1CCNCC1)C1=C(O)C2=CC=CC3CCN(C1=O)C23 (stereo not drawn) [Compound 0613]
- ZOI observed (S. aureus): ✓

SMILES: CCCc1ccc(-c2nc(NC(=O)C3CC(C)=C(C)CC3C(=O)O)sc2C)cc1 (stereo not drawn) [Compound 1808]
- ZOI observed (S. aureus): ✓

SMILES: O=C(NCCN1CCNCC1)c1c(O)c2ccccc2[nH]c1=O [Compound 0607]
- ZOI observed (S. aureus): ✓
- MIC (S. aureus ATCC 29213 [3]; [12]): 512 µg/mL (≈ 1620 µM)
- S. aureus (MBC) (S. aureus ATCC 29213 [11]): N/O
- E. coli (MBC) (E. coli ATCC 25922 [7]): N/O
- MIC (E. coli ATCC 25922 [9]; [13]): 256 µg/mL (≈ 809 µM)

SMILES: O=C(O)C1C2CCC(C2)C1C(=O)Nc1nc(-c2ccc(F)cc2F)cs1 (stereo not drawn) [Compound 1819]
- ZOI observed (S. aureus): ✓
- MIC (S. aureus ATCC 29213 [3]; [12]): 128 µg/mL (≈ 338 µM)
- MBC (S. aureus ATCC 29213 [11]; Staphylococcus aureus, ATCC29213, read-out: S. aureus (MBC)): 512 µg/mL (≈ 1350 µM)

SMILES: O=C(O)C1C2CCC(C2)C1C(=O)Nc1nc(-c2cccs2)cs1 (stereo not drawn) [Compound 1813]
- ZOI observed (S. aureus): ✓
- S. aureus MIC (S. aureus ATCC 29213 [3]; [14]): N/O (N/O)
- S. aureus (MBC) (S. aureus ATCC 29213 [11]): N/O (N/O)
- E. coli (MBC) (E. coli ATCC 25922 [7]): N/O (N/O)
- E. coli MIC (E. coli ATCC 25922 [9]; [14]): N/O (N/O)

SMILES: O=c1cc(O)c2c(=O)n3c4c(cccc4c2o1)CCC3 [Compound 0611]
- ZOI observed (S. aureus): ✓

SMILES: CC1=C(C)CC(C(=O)Nc2nc(-c3ccc(C)cc3)c(C)s2)C(C(=O)O)C1 (stereo not drawn) [Compound 1810]
- ZOI observed (S. aureus): ✓
- MIC (S. aureus ATCC 29213 [3]; [12]): 256 µg/mL (≈ 666 µM)
- S. aureus (MBC) (S. aureus ATCC 29213 [11]): N/O
- E. coli (MBC) (E. coli ATCC 25922 [7]): N/O
- MIC (E. coli ATCC 25922 [9]; [13]): 512 µg/mL (≈ 1330 µM)
